Literature values as cited in patent publication US20040138299A1, “Solid pharmaceutical composition comprising 4-cyano-trifluoro-3(4-fluorophenyl-sulphonyl)-2hydroxy-methylpropiono-m toluidide and pvp” (priority 2001, published 2004).

Settings: conventional tablet doses above 300 mg

CC(O)(CS(=O)(=O)c1ccc(F)cc1)C(=O)Nc1ccc(C#N)c(C(F)(F)F)c1 (stereo not drawn) [bicalutamide, 4′-cyano-α′,α′,α′-trifluoro-3-(4-fluorophenylsulphonyl)-2-hydroxy-2-methylpropiono-m-toluidide]
systemic exposure at high dose: no further significant increase in systemic exposure
